{"source": "patent US7973219B2", "about": "“Method for producing transgenic plants resistant to weed control compounds which disrupt the porphyrin pathways of plants” (Sumitomo Chemical Company, Limited, priority 1998, dated 2011)", "key": {"[1]": {"system": "E. coli BT3/pACYCSP+pTCHLH1 strain", "experiment": "Growth of E. coli BT3/pACYCSP+pTCHLH1 (variant tobacco chelatase subunit) with herbicidal compound", "type": "cell-based, Escherichia coli", "conditions": "18 hours culture, Table 6", "text": "According to the description of Gibson, L. C. D. et al., Proc. Natl. Acad. Sci. USA, 92; p 1941 (1995), the DNA fragment containing bchH gene prepared in Example 1 was digested with the restriction enzymes NdeI and BglII. The resultant DNA fragment was inserted between NdeI restriction site and BamHI restriction site of expression vector pET11a (manufactured by Stratagene) to obtain plasmid pETBCH (FIG. 1). This plasmid pETBCH was introduced into E. coli BL21(DE3) strain competent cells (manufactured by Stratagene) according to the manual attached to the competent cells to obtain E. coli BL21(DE3)/pETBCH strain. The strain was inoculated into 1.5 ml LB liquid culture medium (1% tryptone, 0.5% yeast extract, 0.5% NaCl) containing 100 μg/ml ampicillin in a tube (14×10 mm), and the tube was covered with aluminum foil (hereinafter referred to as dark conditions), cultured with shaking at 37° C. under light of fluorescent lamp (about 8000 lux). When the absorbance at 600 nm of the liquid culture medium became about 0.6, isopropyl β-D-thiogalactopyranoside (IPTG) was added to the liquid culture medium so that the final concentration was 0.4 mM, and the culture was continued for about additional 20 hours. […] In contrast to this, when E. coli BL21(DE3)/pETBCH strain was cultured according to the same manner (with IPTG) except that the tube was not covered with aluminum foil (hereinafter referred to as light conditions), E. coli grew and turned red as above.\nThe plasmid pTCHLH1 and pCR2.1 prepared in Example 7 were introduced into E. coli BT3/pACYCSP strain prepared in Example 3, respectively according to the method described in Hanahan, D. J., Mol. Biol., 166; p 557 (1983). E. coli BT3/pACYCSP+pTCHLH1 strain bearing plasmids pACYCSP and pTCHLH1, and E. coli BT3/pACYCSP+pCR2.1 strain bearing plasmids pACYCSP and pCR2.1 were obtained by culturing the above strains in YPT medium containing 100 μg/ml ampicillin, 15 μg/ml chloramphenicol and 50 μg/ml kanamycin, respectively.\nThese E. coli strains were inoculated into YPT medium containing 10 or 1 ppm of the PPO inhibitory-type herbicidal compound represented by Structure 8, 100 μg/ml ampicillin, 15 μg/ml chloramphenicol, 50 μg/ml kanamycin, 10 μg/ml hemin and 50 μg/ml aminolevulinic acid, cultured under dark conditions or light conditions according to the same manner as in Example 2. Then, 18 hours after initiation of culture, the absorbance of the liquid culture medium was measured at 600 nm. By taking the absorbance of the medium without the herbicidal compound as 1, the relative value of the absorbance of the medium containing the herbicidal compound was calculated."}, "[2]": {"system": "E. coli BT3/pACYCSP+pHASYS8 strain", "experiment": "Growth of E. coli BT3/pACYCSP+pHASYS8 with herbicidal compound", "type": "cell-based, Escherichia coli", "conditions": "1 ppm, 18 hours culture, Table 16"}, "[3]": {"system": "tobacco into which the gene encoding the variant Chlamydomonas reinhardtii PPO was introduced", "experiment": "Leaf piece chlorophyll test, tobacco with gene encoding variant Chlamydomonas reinhardtii PPO", "type": "in vivo", "conditions": "Table 10; for Resistant level to test compound: same manner as Example 6 (0.3 ppm), treated vs untreated leaf pieces; for Total chlorophyll content treated-leaf: same manner as Example 6 (0.3 ppm, 7 days in light)", "text": "(§1) The tobacco leaves into which bchH gene was introduced and control recombinant tobacco leaves obtained in Example 5 were collected and each leaf was divided into the right and left equivalent pieces along the main vein, respectively. To one piece was applied an aqueous solution containing 0.3 ppm PPO inhibitory-type herbicidal compound of Structure 8, while, to the other piece was not applied the compound. These leaf pieces were placed on MS medium containing 0.8% agar and allowed to stand at room temperature for 7 days in light place. Then, each leaf piece was ground with pestle and mortar in 5 ml of 80% aqueous acetone solution to extract chlorophyll. The extract liquid was diluted with 80% aqueous acetone solution and the absorbance was measured at 750 nm, 663 nm and 645 nm to calculate total chlorophyll content according to the method described by Macknney G., J. Biol. Chem. (1941) 140, p 315. The results obtained from 4 clones of tobacco into which bchH gene was introduced (BCH1 to 4) and control recombinant tobacco is shown in Table 4. In the table, the resistant level to the herbicidal compound was represented by percentages of the total chlorophyll content of leaf pieces treated with herbicidal compound to that of untreated leaf pieces.\nLeaf pieces of tobacco cultured sterilely were infected with the Agrobacterium strain and, according to the same manner as in Example 5, tobacco into which the gene encoding the variant Chlamydomonas reinhardtii PPO was introduced was obtained.\nThe level of resistance to the PPO-inhibitory type herbicidal compound represented by Structure 8 was confirmed quantitatively by testing tobacco into which the gene encoding the variant Chlamydomonas reinhardtii PPO prepared in Example 18 was introduced according to the same manner as in Example 6. The results obtained from 4 clones (CRP 1-4) of tobacco into which the gene encoding the variant Chlamydomonas reinhardtii PPO was introduced and control recombinant tobacco is shown in Table 10. In the table, the resistant levels to the herbicidal compound are represented by percentages of the total chlorophyll content of leaf pieces treated with the herbicidal compound to that of untreated leaf pieces."}, "[4]": {"system": "tobacco introduced with the gene encoding the variant barley ferrochelatase", "experiment": "Leaf piece chlorophyll test, tobacco with gene encoding variant barley ferrochelatase", "type": "in vivo", "conditions": "Table 12; for Resistant level to test compound: same manner as Example 6 (0.3 ppm), treated vs untreated leaf pieces; for Total chlorophyll content treated-leaf: same manner as Example 6 (0.3 ppm, 7 days in light)", "text": "as §1\nLeaf pieces of tobacco cultured sterilely were infected with said Agrobacterium strain and, according to the same manner as in Example 5, tobacco into which the gene encoding the variant barley ferrochelatase was introduced was obtained.\nThe level of resistance to the PPO inhibitory-type herbicidal compound represented by Structure 8 was confirmed quantitatively by testing tobacco into which the gene encoding the variant barley ferrochelatase prepared in Example 21 was introduced according to the same manner as in Example 6. The results obtained from 4 clones (HVF 1-4) of tobacco introduced with the gene encoding the variant barley ferrochelatase and control recombinant tobacco are shown in table 12. In the table, the resistant levels to the herbicidal compound are represented by percentages of the total chlorophyll content of leaf pieces treated with herbicidal compound to that of untreated leaf pieces."}}, "data": [{"smiles": "C#CCOc1cc(N2C(=O)C3=C(CCCC3)C2=O)c(F)cc1Cl", "note": "[Structure 8]", "values": [{"measurement": "Relative absorbance", "setting": "[1]; in the dark, 1 ppm", "result": 0.93}, {"measurement": "Relative absorbance", "setting": "[1]; in the dark, 10 ppm", "result": 0.92}, {"measurement": "Relative absorbance", "setting": "[1]; in the light, 1 ppm", "result": 0.89}, {"measurement": "Relative absorbance", "setting": "[1]; in the light, 10 ppm", "result": 0.69}, {"measurement": "Relative absorbance", "setting": "[2]; in the dark", "result": 1.0}, {"measurement": "Relative absorbance", "setting": "[2]; in the light", "result": 0.57}, {"measurement": "Resistant level to test compound", "setting": "[3]; clone CRP-1", "result": 121, "unit": "%"}, {"measurement": "Total chlorophyll content treated-leaf", "setting": "[3]; clone CRP-1", "result": 1.54, "unit": "mg/g-fresh weight"}, {"measurement": "Resistant level to test compound", "setting": "[3]; clone CRP-2", "result": 111, "unit": "%"}, {"measurement": "Total chlorophyll content treated-leaf", "setting": "[3]; clone CRP-2", "result": 1.67, "unit": "mg/g-fresh weight"}, {"measurement": "Resistant level to test compound", "setting": "[3]; clone CRP-3", "result": 101, "unit": "%"}, {"measurement": "Total chlorophyll content treated-leaf", "setting": "[3]; clone CRP-3", "result": 1.11, "unit": "mg/g-fresh weight"}, {"measurement": "Resistant level to test compound", "setting": "[3]; clone CRP-4", "result": 99.4, "unit": "%"}, {"measurement": "Resistant level to test compound", "setting": "[4]; clone HVF-1", "result": 106, "unit": "%"}, {"measurement": "Total chlorophyll content treated-leaf", "setting": "[4]; clone HVF-1", "result": 0.930, "unit": "mg/g-fresh weight"}, {"measurement": "Resistant level to test compound", "setting": "[4]; clone HVF-2", "result": 102, "unit": "%"}, {"measurement": "Total chlorophyll content treated-leaf", "setting": "[4]; clone HVF-2", "result": 1.16, "unit": "mg/g-fresh weight"}, {"measurement": "Resistant level to test compound", "setting": "[4]; clone HVF-3", "result": 98.1, "unit": "%"}, {"measurement": "Total chlorophyll content treated-leaf", "setting": "[4]; clone HVF-3", "result": 1.04, "unit": "mg/g-fresh weight"}, {"measurement": "Resistant level to test compound", "setting": "[4]; clone HVF-4", "result": 95.9, "unit": "%"}, {"measurement": "Total chlorophyll content treated-leaf", "setting": "[4]; clone HVF-4", "result": 1.42, "unit": "mg/g-fresh weight"}]}]}
